According to paper PMC3265452 (PLoS Neglected Tropical Diseases, 2012):
Where a name gives a salt, the structure may show the parent alone.

What follows are molecules tested against AaDOP2 (Aedes aegypti, UniProt H6D5H2) (assay: AaDOP2 antagonist screen of the LOPAC1280 library (HEK-CRELuc-Aadop2 cells, luminescence)). Conditions: not given.
Format: cell-based

AaDOP2, sequence (H6D5H2 1-476): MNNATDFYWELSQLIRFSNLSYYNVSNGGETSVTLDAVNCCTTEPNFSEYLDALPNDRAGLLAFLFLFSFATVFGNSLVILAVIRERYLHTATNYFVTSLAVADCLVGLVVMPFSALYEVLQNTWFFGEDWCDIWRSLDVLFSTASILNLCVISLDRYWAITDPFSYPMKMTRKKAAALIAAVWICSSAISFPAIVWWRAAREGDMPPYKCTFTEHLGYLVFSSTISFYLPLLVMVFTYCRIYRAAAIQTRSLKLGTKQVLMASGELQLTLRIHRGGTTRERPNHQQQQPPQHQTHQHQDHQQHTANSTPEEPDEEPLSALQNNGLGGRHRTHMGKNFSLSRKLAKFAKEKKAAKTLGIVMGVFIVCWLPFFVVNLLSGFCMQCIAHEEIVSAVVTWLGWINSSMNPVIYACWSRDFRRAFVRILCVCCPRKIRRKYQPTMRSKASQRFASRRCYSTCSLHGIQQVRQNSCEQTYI

| Structure (SMILES) | Compound effect (percent receptor signaling in presence of test compound, relative lux units relative to the SCH23390 control) | % of the SCH23390 effect (percent inhibition of receptor response relative to the SCH23390 control) |
| --- | --- | --- |
| O=C(O)C1CN(CCCP(=O)(O)O)CCN1 (racemic) [Compound 329, (±)-CPP] | 91 | – |
| Oc1cc2c(cc1O)[C@H]1c3ccccc3CN[C@@H]1CC2 (racemic) [Compound 398, Dihydrexidine hydrochloride] | 110 | – |
| Cl.Oc1cc2c(cc1O)C(c1ccccc1)CNCC2 (racemic) [Compound 444, (±)-SKF-38393 hydrochloride] | 101 | – |
| COc1cc(CC(C)N)c(OC)cc1I.Cl (racemic) [Compound 447, (±)-DOI hydrochloride] | 86 | – |
| CC(N)c1cccc(Cl)c1Cl.Cl (racemic) [Compound 448, (±)-2,3-Dichloro-alpha-methylbenzylamine hydrochloride] | 84 | – |
| CCCCCCCCCCCCCCCC(=O)NCC(COP(=O)([O-])OCC[N+](C)(C)C)OCC (racemic) [Compound 488, rac-2-Ethoxy-3-hexadecanamido-1-propylphosphocholine] | 42 | – |
| CCCCCCCCCCCCCCCCCC(=O)NCC(COP(=O)([O-])OCC[N+](C)(C)C)OCC (racemic) [Compound 489, rac-2-Ethoxy-3-octadecanamido-1-propylphosphocholine] | 65 | – |
| COc1cc(C(O)C(=O)O)ccc1O (racemic) [Compound 573, (±)-Vanillylmandelic acid] | 115 | – |
| NC(Cc1cc(O)c(O)cc1O)C(=O)O (racemic) [Compound 584, 6-Hydroxy-DL-DOPA] | 101 | – |
| N[C@H](C(=O)O)c1cc(O)no1 (racemic) [Compound 642, (±)-Ibotenic acid] | 105 | – |
| CC(C)Cc1ccc(C(C)C(=O)O)cc1 (racemic) [Compound 646, (±)-Ibuprofen] | 98 | – |
| COC(=O)C(C)(N)Cc1ccc(O)cc1.Cl (racemic) [Compound 759, alpha-Methyl-DL-tyrosine methyl ester hydrochloride] | 101 | – |
| COCCc1ccc(OCC(O)CNC(C)C)cc1.COCCc1ccc(OCC(O)CNC(C)C)cc1.O=C(O)C(O)C(O)C(=O)O (racemic) [Compound 777, (±)-Metoprolol (+)-tartrate] | 98 | – |
| C[C@@H]1O[C@H](C[N+](C)(C)C)C[C@H]1O.[Cl-] (racemic) [Compound 814, (±)-Muscarine chloride] | 104 | – |
| COc1cc(C(O)CN)ccc1O.Cl (racemic) [Compound 862, (±)-Normetanephrine hydrochloride] | 81 | – |
| NCC(O)c1ccc(O)cc1 (racemic) [Compound 894, (±)-Octopamine hydrochloride, reference compound] | 104 | – |
| CN1CCN(C2Cc3ccccc3Sc3ccc(Cl)cc32)CC1.O=C(O)/C=C\C(=O)O (racemic) [Compound 913, (±)-Octoclothepin maleate] | 3 | 97% |
| CC(C)NCC(O)COc1cccc2ccccc12.Cl (racemic) [Compound 922, (±)-Propranolol hydrochloride] | 102 | – |
| CCCCCCCCCCCCCCCC(=O)OC(CC(=O)O)C[N+](C)(C)C.[Cl-] (racemic) [Compound 943, Palmitoyl-DL-Carnitine chloride] | 59 | – |
| O=C(O)[C@H]1CCCN[C@H]1C(=O)O (racemic) [Compound 985, (±)-cis-Piperidine-2,3-dicarboxylic acid] | 108 | – |
| CNCC(O)c1ccc(O)cc1 (racemic) [Compound 1077, (±)-Synephrine] | 88 | – |
| CCCCCCCCCCCCCCCCCC(=O)OC(CC(=O)O)C[N+](C)(C)C.[Cl-] (racemic) [Compound 1088, DL-Stearoylcarnitine chloride] | 101 | – |
| Br.C=CCN1CCc2cc(O)c(O)cc2C(c2ccccc2)C1 (racemic) [Compound 1139, (±)-SKF 38393, N-allyl-, hydrobromide] | 70 | – |
| O=C1c2c(O)cc(O)cc2O[C@H](c2ccc(O)c(O)c2)[C@H]1O (racemic) [Compound 1176, (±)-Taxifolin] | 102 | – |
| O=C(O)CCCCC1CCSS1 (racemic) [Compound 1185, (±)-alpha-Lipoic Acid] | 111 | – |
| O=C(O)CNC(=O)C(CS)Cc1ccccc1 (racemic) [Compound 1186, DL-Thiorphan] | 107 | – |

Same assay, conditions: 10 µM compound, 300 nM dopamine, 2 hr; hit = compound effect <20

| Compound effect (percent receptor signaling in presence of test compound, relative lux units relative to the SCH23390 control) | Structure (SMILES) |
| --- | --- |
| 71% | COC(=O)C(N)Cc1ccc(Cl)cc1.Cl (racemic) [Compound 248, DL-p-Chlorophenylalanine methyl ester hydrochloride] |
| 62% | NC(Cc1ccc(Cl)cc1)C(=O)O (racemic) [Compound 285, (±)-p-Chlorophenylalanine] |
| 94% | NC1CONC1=O (racemic) [Compound 291, DL-Cycloserine] |
| 97% | CC(C)(C)NCC(O)COc1cccc2[nH]c(=O)[nH]c12.Cl (racemic) [Compound 334, (±)-CGP-12177A hydrochloride] |
| 77% | Br.C=CCN1CCc2c(cc(O)c(O)c2Cl)C(c2ccccc2)C1 (racemic) [Compound 336, (±)-Chloro-APB hydrobromide] |
| 88% | CCCCCCCCCCCCCCC[C@H](O)[C@H](N)CO (racemic) [Compound 406, DL-erythro-Dihydrosphingosine] |
| 94% | Cl.NCCCC(N)(C(=O)O)C(F)F (racemic) [Compound 467, DL-alpha-Difluoromethylornithine hydrochloride] |
| 118% | NC(C(=O)O)C(O)C(=O)O (racemic) [Compound 585, DL-threo-beta-hydroxyaspartic acid] |
| 108% | CC(N)(C(=O)O)c1ccc(C(=O)O)cc1 (racemic) [Compound 771, (±)-alpha-Methyl-4-carboxyphenylglycine] |
| 88% | COc1ccc(CCN(C)CCCC(C#N)(c2cc(OC)c(OC)c(OC)c2)C(C)C)cc1OC.Cl (racemic) [Compound 782, (±)-Methoxyverapamil hydrochloride] |
| 99% | CC(N)(Cc1ccc(O)c(O)c1)C(=O)O (racemic) [Compound 797, (±)-3-(3,4-dihydroxyphenyl)-2-methyl-DL-alanine] |
| 85% | CCCCCCCCCC(=O)NC(CN1CCOCC1)[C@H](O)c1ccccc1.Cl (mixture of isomers) [Compound 968, (±)-threo-1-Phenyl-2-decanoylamino-3-morpholino-1-propanol hydrochloride] |
| 73% | CCCN(CCc1ccccc1)C1CCc2c(O)cccc2C1.Cl (racemic) [Compound 1005, (±)-PPHT hydrochloride] |
| 125% | CC(C)NCC(O)c1ccc(NS(C)(=O)=O)cc1.Cl (racemic) [Compound 1074, (±)-Sotalol hydrochloride] |
| 114% | CCN1CCCC1CNC(=O)c1cc(S(N)(=O)=O)ccc1OC (racemic) [Compound 1113, (±)-Sulpiride] |
| 107% | O=C1CCC(N2C(=O)c3ccccc3C2=O)C(=O)N1 (racemic) [Compound 1227, (±)-Thalidomide] |

| Structure (SMILES) | Compound effect (percent receptor signaling in presence of test compound, relative lux units relative to the SCH23390 control) |
| --- | --- |
| Br.Cc1o[nH]c(=O)c1CC(N)C(=O)O (racemic) [Compound 563, (±)-AMPA hydrobromide] | 101% |
| Br.CCCN(CCC)C1CCc2cccc(O)c2C1 (racemic) [Compound 602, (±)-8-Hydroxy-DPAT hydrobromide] | 102% |
| Br.CCCN(CCC)C1CCc2ccc(O)cc2C1 (racemic) [Compound 606, (±)-7-Hydroxy-DPAT hydrobromide] | 62% |
| CCN1CCC[C@H]1CNC(=O)c1c(O)c(Cl)cc(Cl)c1OC.O=C(O)C(O)C(O)C(=O)O (racemic) [Compound 1069, S(+)-Raclopride L-tartrate] | 76% |
| Br.Oc1cc2c(c(Cl)c1O)CCNCC2c1ccccc1 (racemic) [Compound 1133, (±)-6-Chloro-PB hydrobromide] | 99% |
